Reference: PMC5682201 (European journal of medicinal chemistry, 2017)

What was measured:
Type in all cases: cell-based
HepG2 = HepG2 toxicity; settings: Table 4
NIH 3T3 = NIH 3T3 toxicity; settings: Table 4
L. major Amastigotes = assay: Leishmania major amastigote assay; settings: read-out: L. major Amastigotes EC50; Table 4; r^2 values >0.75

## 6-(3-morpholinophenyl)-N-(1,2,4-triazin-3-yl)quinazolin-4-amine [9d]
HepG2
  HepG2 TC50: >20 µM
NIH 3T3
  NIH 3T3 TC50: >50 µM
L. major Amastigotes
  EC50: > 15 µM
